Laboratory results published in publication PMC6273431, “The Structure–Antimicrobial Activity Relationships of a Promising Class of the Compounds Containing the N-Arylpiperazine Scaffold” (Molecules, 2016).
Where two headings read alike, the source gives them in different places.

Assays:
[1] = tested on: Mycobacterium avium subsp. paratuberculosis CIT03; assay: antimycobacterial MIC, MB broth, alamarBlue; type: cell-based; details: 264 h, read-out: MIC MAP
Description: The Mycobacterium avium subsp. paratuberculosis CIT03 strain was grown in the Middlebrook (MB) broth, supplemented with the Oleic-Albumin-Dextrose-Catalase Supplement (OADC, Becton Dickinson, Oxford, UK) and the mycobactin J (2 μg/mL). The commercially available siderophore mycobactin J reduced the incubation period of M. avium subsp. paratuberculosis in a complex medium when compared to the medium containing the mycobactin P as a growth factor.
The identification of the isolate was performed using biochemical and molecular protocols. At a log phase growth, a culture sample (10 mL) was centrifuged at 15,000 rpm/20 min using a bench top centrifuge (Model CR 4-12, Jouan Inc., London, UK). Following removal of the supernatant, the pellet was washed in fresh Middlebrook 7H9GC broth and re-suspended in fresh supplemented MB broth (10 mL). The turbidity was adjusted to match the McFarland standard No. 1 containing approximately 3.0 × 10^8 Colony Forming Units (CFU) with the MB broth. Further 1:20 dilution of the culture was performed in the MB broth. The susceptibility of given mycobacterial species was investigated in a 96-well plate format. In those experiments, sterile deionised water (300 μL) was added to all outer-perimeter wells of the plates to minimize an evaporation of the medium in the test wells during the incubation process. Each evaluated compound (100 μL) was incubated with the mycobacterial species (100 μL). The dilutions of a particular compound were prepared in triplicate. For all inspected derivatives, final concentrations ranged from 1000 μg/mL to 60 μg/mL. All compounds were prepared in dimethyl sulfoxide (DMSO; Sigma-Aldrich, Irvine, UK) and subsequent dilutions were made in the supplemented MB broth. The plates were sealed with a parafilm and incubated at 37 °C for 11 days. Following the incubation, a 10% addition of a water‑soluble dye, the alamarBlue reagent (AbD Serotec, Kidlington, UK), was mixed into each well. Absorbance readings at 570 nm and 600 nm were taken, initially for background subtraction and after 24 h re-incubation. The subtraction is necessary for strongly coloured compounds, where the colour may interfere with the interpretation of any colour change. For non-interfering compounds, a blue colour in a well was interpreted as an absence of a growth and a pink colour was scored as a growth.
The minimum inhibitory concentration (MIC) was defined as the lowest concentration of the compound at which no visible bacterial growth was observed. In other words, the MIC was the lowest concentration that prevented a visual colour change from blue to pink. The MIC value has been routinely and widely used in bacterial assays and it has been a standard detection limit according to the Clinical and Laboratory Standards Institute. The clinically used antimycobacterial drugs INH and RIF were applied as the standards.

M. smegmatis ATCC 700084 = assay: antimycobacterial MIC, broth dilution micromethod; type: cell-based; details: Mycolicibacterium smegmatis, ATCC700084, 72 h, 3 days at 37 °C
M. kansasii DSM 44162 = assay: antimycobacterial MIC, broth dilution micromethod; type: cell-based; details: Mycobacterium kansasii, DSM44162, 168 h, 7 days at 37 °C
M. marinum CAMP 5644 = assay: antimycobacterial MIC, broth dilution micromethod; type: cell-based; details: Mycobacterium marinum, CAMP5644, 504 h, 21 days at 28 °C
[2] = tested on: Enterococcus faecalis ATCC 29212; assay: antibacterial MIC, microtitration broth method; type: cell-based; details: 37 °C
Description: (§1) Prior to the testing, each strain was transferred into a nutrient agar (Oxoid Limited, Basingstoke, UK), which was enriched with 5% defibrinated bovine blood.
(§2) The MICs were determined by the microtitration broth method in the cation-adjusted Mueller-Hinton broth (Becton Dickinson, Oxford, UK) according to an international interdisciplinary Clinical Laboratory Standard Institute guidelines.
(§3) The checkerboard was inoculated by the bacterial inocula, which were prepared in a phosphate buffered saline solution with the pH = 7.2–7.3 to simulate physiological pH. The final concentration of each inoculum in the final volume of 100 μL in the wells was approximately 7.5 × 10^6 CFU/mL. Drug-free controls, sterility controls and the controls consisted of the broth with DMSO were included. The determination of the results was performed visually after 24 h of static incubation in the darkness at 37 °C in an aerobic atmosphere.
(§4) To ensure reproducibility, each antibacterial MIC assay was performed triplicate on separate occasions.

[3] = tested on: Escherichia coli ATCC 25922; assay: antibacterial MIC, microtitration broth method; type: cell-based; details: 37 °C
Description: as §1, §2, §3, §4

[4] = tested on: Staphylococcus aureus ATCC 29213; assay: antibacterial MIC, microtitration broth method; type: cell-based; details: 37 °C
Description: as §1, §2, §3, §4

[5] = tested on: methicillin-resistant Staphylococcus aureus 63718; assay: antibacterial MIC, microtitration broth method; type: cell-based; details: MRSA, 37 °C
Description: as §1, §2, §3, §4

[6] = tested on: Candida albicans CCM 8261; assay: candidacidal MIC, microdilution method; type: cell-based; details: 48 h, 37 °C
Description: (§5) In order to provide a look into the potential usefulness of the derivatives 5a–l as the candidates for a development of anti-yeast (candidacidal) agents, they were in vitro tested against Candida albicans CCM 8261 (CA 8261), C. krusei CCM 8271 (CK 8271) and C. parapsilosis CCM 8260 (CP 8260). The yeasts were obtained from the Czech Collection of Microorganisms (Masaryk University, Faculty of Science, Brno, Czech Republic). They were grown and kept on Sabouraud agar (Oxoid Limited, Basingstoke, UK).
(§6) For the screening, the microdilution method according to the Antimicrobial Susceptibility Testing Protocols was applied. The inoculum was prepared from the cultures grown on Sabouraud agar. With the sterile solution of NaCl, the inoculum was prepared to the 0.5 McFarland units using the Densi-La-Meter densitometer (LIAP, Riga, Latvia) and diluted a thousand‑fold with the Roswell Park Memorial Institute (RPMI) 1640 medium (Sigma-Aldrich, Darmstadt, Germany). Prepared suspension was used for an inoculation of microtitre plates. Final concentration in wells ranged from 5.0 × 10^2 CFU/mL to 2.5 × 10^3 CFU/mL. […] For the determination of the MICs, the stock solutions of all the tested compounds were diluted in the microtitre checkerboard to the final concentration varying from 128 μg/mL to 0.125 μg/mL. Drug-free control, sterility control and the control consisted of a medium and DMSO alone were included. Inoculated microtitre plates were incubated for 48 h in the darkness at 37 °C in an aerobic atmosphere. The results were estimated against static light.
(§7) The MIC was defined as the lowest concentration of the tested compound at which no visible growth was observed. To ensure reproducibility of the results, each candidacidal MIC assay was performed triplicate on separate occasions. It was important to note that all the MICs from the in vitro antimicrobial screening were expressed in μg/mL units and were available in Tables S3 and S4 (Supplementary Materials).

Candida krusei CCM 8271 = assay: candidacidal MIC, microdilution method; type: cell-based; details: 48 h, 37 °C
Description: as §5, §6, §7

[7] = tested on: Candida parapsilosis CCM 8260; assay: candidacidal MIC, microdilution method; type: cell-based; details: 48 h, 37 °C
Description: as §5, §6, §7

[8] = design: method as in PMID 16209439, PMID 16209439; details: potentiometric titration; cited from earlier work
[9] = design: method as in PMID 16209439, PMID 16209439, doi:10.2478/s11696-006-0007-y; details: octan-1-ol/phosphate buffer (pH = 7.4); cited from earlier work
[10] = Candida albicans, CCM8261, Table S4
[11] = Pichia kudriavzevii, CCM8271, Table S4
[12] = Lodderomyces parapsilosis, CCM8260
[13] = Lodderomyces parapsilosis, CCM8260, Table S4

Structure (SMILES)	MIC ([1]; 37 °C, 11 days) [µM]	MIC [1] [µg/mL]	MIC (M. smegmatis ATCC 700084) [µM]	MIC (M. smegmatis ATCC 700084; Table S3) [µg/mL]	MIC (M. kansasii DSM 44162) [µM]	MIC (M. kansasii DSM 44162; Table S3) [µg/mL]	MIC (M. marinum CAMP 5644) [µM]	MIC (M. marinum CAMP 5644; Table S3) [µg/mL]	MIC ([2]; ATCC29212, 24 h) [µM]	MIC ([2]; ATCC29212, Table S4, 24 h) [µg/mL]	MIC ([3]; ATCC25922, 24 h) [µM]	MIC ([3]; ATCC25922, Table S4, 24 h) [µg/mL]	MIC ([4]; ATCC29213, 24 h) [µM]	MIC ([4]; ATCC29213, Table S4, 24 h) [µg/mL]	MIC ([5]; 24 h) [µM]	MIC ([5]; Table S4, 24 h) [µg/mL]	MIC ([6]; Candida albicans, CCM8261) [µM]	MIC [6, 10] [µg/mL]	MIC (Candida krusei CCM 8271; Pichia kudriavzevii, CCM8271) [µM]	MIC [7, 12] [µM]	also measured
CCOc1ccc(NC(=O)OCC(O)CN2CCN(c3cccc(C(F)(F)F)c3)CC2)cc1 (stereo not shown) [Compound 5f]	992	500	508	256	508	256	254	128	> 508	> 256	> 508	> 256	> 508	> 256	> 508	> 256	> 254	> 128	> 254	> 254	MIC (Candida krusei CCM 8271; [11]): > 128 µg/mL; MIC [7, 13]: > 128 µg/mL; pKa [8]: 5.69; log Pexp [9]: 3.71
CCOc1ccccc1NC(=O)OCC(O)CN1CCN(c2ccc(F)cc2)CC1 (stereo not shown) [Compound 5h]	1100	500	564	256	282	128	282	128	> 564	> 256	> 564	> 256	> 564	> 256	> 564	> 256	> 282	> 128	> 282	> 282	MIC (Candida krusei CCM 8271; [11]): > 128 µg/mL; MIC [7, 13]: > 128 µg/mL; pKa [8]: 6.58; log Pexp [9]: 3.90
CCOc1cccc(NC(=O)OCC(O)CN2CCN(c3ccc(F)cc3)CC2)c1.Cl (stereo not shown) [Compound 5j, 1-[3-(3-ethoxyphenylcarbamoyl)oxy-2-hydroxypropyl]-4-(4-fluorophenyl)piperazin-1-ium chloride]	551	250	282	128	17.6	8	141	64	> 564	> 256	> 564	> 256	> 564	> 256	> 564	> 256	> 282	> 128	> 282	> 282	MIC (Candida krusei CCM 8271; [11]): > 128 µg/mL; MIC [7, 13]: > 128 µg/mL; pKa [8]: 6.31; log Pexp [9]: 3.59
C[C@@H]1[C@H](O)[C@@H](C)/C=C/C=C/C=C/C=C/C=C/C=C/C=C/[C@H](O[C@@H]2O[C@H](C)[C@@H](O)[C@H](N)[C@@H]2O)C[C@@H]2O[C@](O)(C[C@@H](O)C[C@@H](O)[C@H](O)CC[C@@H](O)C[C@@H](O)CC(=O)O[C@H]1C)C[C@H](O)[C@H]2C(=O)O [Amph. B, amphotericin B, reference compound]																	0.54		0.54	1.08	
CO[C@H]1/C=C/O[C@@]2(C)Oc3c(C)c(O)c4c(O)c(c(/C=N/N5CCN(C)CC5)c(O)c4c3C2=O)NC(=O)/C(C)=C\C=C\[C@H](C)[C@H](O)[C@@H](C)[C@@H](O)[C@@H](C)[C@H](OC(C)=O)[C@@H]1C [RIF, rifampicin, reference compound]	109	60	19.4	0.125	0.15	0.5	2.43	0.25													
Nc1nc(=O)[nH]cc1F [Compound 5-FC, 5-flucytosine, reference compound]																					MIC [6]: 7.69 µM; MIC CA ([6]; Table S4): 1 µg/mL; MIC (Candida krusei CCM 8271): 0.96 µM; MIC CK (Candida krusei CCM 8271; Table S4): 0.125 µg/mL; MIC [7]: 61.50 µM; MIC CP ([7]; Table S4): 8 µg/mL
CC1(C)S[C@@H]2[C@H](NC(=O)[C@H](N)c3ccccc3)C(=O)N2[C@H]1C(=O)O [AMP, ampicillin, reference compound]									> 45.8	> 16	> 45.8	> 16	5.72	2	> 45.8	> 16					
NNC(=O)c1ccncc1 [INH, isoniazid, reference compound]	1820	250	117	16.1			467	64													
